Test results from patent US20100298141A1, “SUBSTITUTED PYRIDINE N-OXIDE HERBICIDES” (E. I. DU PONT DE NEMOURS AND COMPANY, priority 2007, published 2010).

Tests used:
[1] = tested on: rice; assay: Test C flooded paddy test; type: in vivo, Oryza sativa; conditions: Flood
Outline: (§1)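 Compound was added to standing water 3 cm above soil, flood maintained, and plants held in a greenhouse before visual scoring against controls at 13 to 15 days.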

[2] = tested on: crabgrass; assay: Test C pre-/postemergence test; type: in vivo, Digitaria sanguinalis
Outline: (§2)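 Test chemicals were formulated with surfactant in a non-phytotoxic solvent and sprayed both on freshly planted seeds (preemergence) and on 1- to 4-leaf plants of 2–18 cm (postemergence). Flooded-paddy pots received compound directly into 3 cm of standing water, maintained for the test.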

[3] = tested on: barnyardgrass; assay: Test A pre-/postemergence greenhouse test; type: in vivo, Echinochloa crus-galli; conditions: for Barnyardgrass plant response rating: 0 to 100 scale; for Plant response rating, Barnyardgrass: 0 to 100 scale where 0 is no effect and 100 is complete control
Outline: (§3)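 Sowing in loam/sand; same-day pre (directed soil spray) and post (foliar, 1–2 leaf, 2–10 cm) treatment with surfactant-containing non-phytotoxic solvent formulation; ~10 days in greenhouse; eye-scored injury against untreated plants.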

[4] = tested on: duck salad; assay: Test C flooded paddy test; type: in vivo, Heteranthera limosa; conditions: Flood
Outline: as §1

[5] = tested on: eastern black nightshade; assay: Test C pre-/postemergence test; type: in vivo, Solanum ptycanthum
Text: Seeds of plant species selected from blackgrass (Alopecurus myosuroides), downy brome (Bromus tectorum), green foxtail (Setaria viridis), Italian ryegrass (Lolium multiflorum), wheat (Triticum aestivum), wild oat (Avena fatua), catchweed bedstraw (Galium aparine), Russian thistle (Salsola kali), […] (Cynodon dactylon), Surinam grass (Brachiaria decumbens), cocklebur (Xanthium strumarium), corn (Zea mays), crabgrass (Digitaria sanguinalis), woolly cupgrass (Eriochloa villosa), giant foxtail (Setaria faberii), Goosegrass (Eleusin indica), johnsongrass (Sorghum halepense), kochia (Kochia scoparia), lambsquarters (Chenopodium album), morningglory (Ipomoea coccinea), eastern black nightshade (Solanum ptycanthum), yellow nutsedge (Cyperus esculentus), pigweed (Amaranthus retroflexus), common ragweed (Ambrosia elation), soybean (Glycine max), common (oilseed) sunflower (Helianthus annuus), and velvetleaf (Abutilon theophrasti) were planted and treated preemergence with test chemicals formulated in a non-phytotoxic solvent mixture which included a surfactant. At the same time, plants selected from these crop and weed species and also winter barley (Hordeum vulgare), canarygrass (Phalaris minor), and chickweed (Stellaria media) were treated with postemergence applications of some of the test chemicals formulated in the same manner. Plants ranged in height from 2 to 18 cm (1- to 4-leaf stage) for postemergence treatments. […] At time of treatment, test pots were flooded to 3 cm above the soil surface, treated by application of test compounds directly to the paddy water, and then maintained at that water depth for the duration of the test. […] A dash (-) response means no test result.

[6] = tested on: velvetleaf; assay: Test C pre-/postemergence test; type: in vivo, Abutilon theophrasti
Outline: as §2

[7] = tested on: kochia; assay: Test C pre-/postemergence test; type: in vivo, Kochia scoparia
Outline: as §2

[8] = tested on: lambsquarters; assay: Test C pre-/postemergence test; type: in vivo, Chenopodium album
Outline: as §2

[9] = tested on: velvetleaf; assay: Test A pre-/postemergence greenhouse test; type: in vivo, Abutilon theophrasti; conditions: for Velvetleaf plant response rating: 0 to 100 scale; for Plant response rating, Velvetleaf: 0 to 100 scale where 0 is no effect and 100 is complete control
Outline: as §3

[10] = tested on: redroot pigweed; assay: Test A pre-/postemergence greenhouse test; type: in vivo, Amaranthus retroflexus; conditions: for Pigweed plant response rating: 0 to 100 scale; for Plant response rating, Pigweed: 0 to 100 scale where 0 is no effect and 100 is complete control
Outline: as §3

[11] = tested on: common ragweed; assay: Test C pre-/postemergence test; type: in vivo, Ambrosia elation
Outline: as §2

[12] = tested on: johnsongrass; assay: Test C pre-/postemergence test; type: in vivo, Sorghum halepense
Outline: as §2

[13] = tested on: Surinam grass; assay: Test C pre-/postemergence test; type: in vivo, Brachiaria decumbens
Outline: as §2

[14] = tested on: giant foxtail; assay: Test C pre-/postemergence test; type: in vivo, Setaria faberii
Outline: as §2

[15] = tested on: cocklebur; assay: Test C pre-/postemergence test; type: in vivo, Xanthium strumarium
Outline: as §2

[16] = tested on: green foxtail; assay: Test C pre-/postemergence test; type: in vivo, Setaria viridis
Outline: as §2

[17] = tested on: downy brome; assay: Test C pre-/postemergence test; type: in vivo, Bromus tectorum
Outline: as §2

[18] = tested on: wild oat; assay: Test C pre-/postemergence test; type: in vivo, Avena fatua
Outline: as §2

[19] = 31 g ai/ha, scale 0 to 100 (0 no effect, 100 complete control)
[20] = 62 g ai/ha, scale 0 to 100, 0 no effect, 100 complete control, 13 to 15 days
[21] = 125 g ai/ha, scale 0 to 100, 0 no effect, 100 complete control, 13 to 15 days
[22] = 250 g ai/ha, scale 0 to 100, 0 no effect, 100 complete control, 13 to 15 days
[23] = 62 g ai/ha, Preemergence, scale 0 to 100
[24] = 125 g ai/ha, preemergence, scale 0 (no effect) to 100 (complete control)
[25] = Preemergence, 31 g ai/ha, scale 0 to 100 (0 no effect, 100 complete control)
[26] = preemergence, 250 g ai/ha, scale 0 (no effect) to 100 (complete control)
[27] = Postemergence, 125 g ai/ha, 0 is no effect, 100 is complete control
[28] = Postemergence, 500 g ai/ha, 0 is no effect, 100 is complete control
[29] = Preemergence, 125 g ai/ha, 0 no effect, 100 complete control
[30] = 250 g ai/ha, scale 0 to 100 (0 no effect, 100 complete control)
[31] = 31 g ai/ha, Preemergence, scale 0 to 100
[32] = 62 g ai/ha, preemergence, scale 0 (no effect) to 100 (complete control)
[33] = preemergence, 125 g ai/ha, scale 0 (no effect) to 100 (complete control)

Compound: Cn1nc(C(F)(F)F)c(C[S+]([O-])c2cc(Cl)cc[n+]2[O-])c1Cl (racemic) [Compound 39]
- Plant response rating, Rice [1, 19]: 0
- Plant response rating, Rice [1, 20]: 10
- Plant response rating, Rice [1, 21]: 40
- Plant response rating, Rice [1, 22]: 65
- Crabgrass, Large plant response rating [2, 23]: 90
- Crabgrass, Large plant response rating [2, 24]: 100
- Plant response rating, Crabgrass, Large [2, 25]: 80
- Crabgrass, Large plant response rating [2, 26]: 100
- Barnyardgrass plant response rating [3, 27]: 70
- Barnyardgrass plant response rating [3, 28]: 90
- Barnyardgrass plant response rating [3, 29]: 90
- Plant response rating, Barnyardgrass ([3]; Preemergence, 500 g ai/ha): 100
- Plant response rating, Ducksalad [4, 19]: 70
- Plant response rating, Ducksalad [4, 20]: 80
- Plant response rating, Ducksalad [4, 21]: 90
- Plant response rating, Ducksalad [4, 22]: 95
- Nightshade plant response rating [5, 23]: 90
- Nightshade plant response rating [5, 24]: 95
- Plant response rating, Nightshade [5, 25]: 75
- Nightshade plant response rating [5, 26]: 98
- Velvetleaf plant response rating [6, 23]: 45
- Velvetleaf plant response rating [6, 24]: 60
- Plant response rating, Velvetleaf [6, 25]: 30
- Velvetleaf plant response rating [6, 26]: 100
- Kochia plant response rating [7, 23]: 0
- Kochia plant response rating [7, 24]: 60
- Plant response rating, Kochia [7, 25]: 0
- Kochia plant response rating [7, 26]: 100
- Lambsquarters plant response rating [8, 23]: 80
- Lambsquarters plant response rating [8, 24]: 100
- Plant response rating, Lambsquarters [8, 25]: 75
- Lambsquarters plant response rating [8, 26]: 100
- Velvetleaf plant response rating [9, 27]: 40
- Velvetleaf plant response rating [9, 28]: 60
- Velvetleaf plant response rating [9, 29]: 70
- Plant response rating, Velvetleaf ([9]; Preemergence, 500 g ai/ha): 100
- Pigweed plant response rating [10, 27]: 60
- Pigweed plant response rating [10, 28]: 100
- Pigweed plant response rating [10, 29]: 100
- Plant response rating, Pigweed ([10]; Preemergence, 500 g ai/ha): 100
- Ragweed plant response rating [11, 23]: 0
- Ragweed plant response rating [11, 24]: 90
- Ragweed plant response rating [11, 26]: 90
- Johnsongrass plant response rating [12, 23]: 80
- Johnsongrass plant response rating [12, 24]: 85
- Plant response rating, Johnsongrass [12, 25]: 30
- Johnsongrass plant response rating [12, 26]: 85
- Surinam Grass plant response rating [13, 23]: 80
- Surinam Grass plant response rating [13, 24]: 90
- Plant response rating, Surinam Grass [13, 25]: 60
- Surinam Grass plant response rating [13, 26]: 90
- Foxtail, Giant plant response rating [14, 23]: 90
- Plant response rating, Foxtail, Giant [14, 25]: 20
- Foxtail, Giant plant response rating [14, 26]: 90
- Cocklebur plant response rating [15, 23]: 0
- Cocklebur plant response rating [15, 24]: 0
- Plant response rating, Cocklebur [15, 25]: 0
- Cocklebur plant response rating [15, 26]: 0

Compound: Cn1nc(C(F)(F)F)c(CS(=O)(=O)c2ccc(Cl)c[n+]2[O-])c1OC(F)F [Compound 7]
- Plant response rating, Rice [1, 19]: 0
- Plant response rating, Rice [1, 20]: 0
- Plant response rating, Rice [1, 21]: 15
- Plant response rating, Rice [1, 30]: 15
- Crabgrass, Large plant response rating [2, 31]: 100
- Crabgrass, Large plant response rating [2, 32]: 100
- Plant response rating (0 to 100), Crabgrass, Large ([2]; Preemergence, 250 g ai/ha): 100
- Crabgrass, Large plant response rating [2, 33]: 100
- Barnyardgrass plant response rating [3, 27]: 10
- Barnyardgrass plant response rating [3, 29]: 90
- Plant response rating, Barnyardgrass ([3]; Preemergence, 500 g ai/ha): 90
- Plant response rating, Ducksalad [4, 19]: 30
- Plant response rating, Ducksalad [4, 20]: 50
- Plant response rating, Ducksalad [4, 21]: 75
- Plant response rating, Ducksalad [4, 30]: 80
- Nightshade plant response rating [5, 31]: 0
- Nightshade plant response rating [5, 32]: 50
- Plant response rating (0 to 100), Nightshade ([5]; Preemergence, 250 g ai/ha): 95
- Nightshade plant response rating [5, 33]: 50
- Foxtail, Green plant response rating [16, 31]: 40
- Foxtail, Green plant response rating [16, 32]: 60
- Plant response rating (0 to 100), Foxtail, Green ([16]; Preemergence, 250 g ai/ha): 100
- Foxtail, Green plant response rating [16, 33]: 80
- Velvetleaf plant response rating [6, 32]: 0
- Plant response rating (0 to 100), Velvetleaf ([6]; Preemergence, 250 g ai/ha): 0
- Velvetleaf plant response rating [6, 33]: 0
- Lambsquarters plant response rating [8, 31]: 0
- Lambsquarters plant response rating [8, 32]: 0
- Plant response rating (0 to 100), Lambsquarters ([8]; Preemergence, 250 g ai/ha): 100
- Lambsquarters plant response rating [8, 33]: 80
- Velvetleaf plant response rating [9, 27]: 0
- Velvetleaf plant response rating [9, 28]: 20
- Plant response rating, Velvetleaf ([9]; Preemergence, 500 g ai/ha): 30
- Pigweed plant response rating [10, 27]: 60
- Pigweed plant response rating [10, 28]: 70
- Pigweed plant response rating [10, 29]: 100
- Plant response rating, Pigweed ([10]; Preemergence, 500 g ai/ha): 100
- Bromegrass, Downy plant response rating [17, 31]: 0
- Bromegrass, Downy plant response rating [17, 32]: 0
- Plant response rating (0 to 100), Bromegrass, Downy ([17]; Preemergence, 250 g ai/ha): 0
- Bromegrass, Downy plant response rating [17, 33]: 0
- Ragweed plant response rating [11, 31]: 0
- Ragweed plant response rating [11, 32]: 80
- Plant response rating (0 to 100), Ragweed ([11]; Preemergence, 250 g ai/ha): 100
- Ragweed plant response rating [11, 33]: 100
- Johnsongrass plant response rating [12, 31]: 90
- Johnsongrass plant response rating [12, 32]: 100
- Plant response rating (0 to 100), Johnsongrass ([12]; Preemergence, 250 g ai/ha): 100
- Johnsongrass plant response rating [12, 33]: 100
- Oat, Wild plant response rating [18, 31]: 0
- Oat, Wild plant response rating [18, 32]: 30
- Plant response rating (0 to 100), Oat, Wild ([18]; Preemergence, 250 g ai/ha): 70
- Oat, Wild plant response rating [18, 33]: 40
- Surinam Grass plant response rating [13, 32]: 20
- Plant response rating (0 to 100), Surinam Grass ([13]; Preemergence, 250 g ai/ha): 70
- Surinam Grass plant response rating [13, 33]: 30
- Foxtail, Giant plant response rating [14, 31]: 50
- Foxtail, Giant plant response rating [14, 32]: 50
- Plant response rating (0 to 100), Foxtail, Giant ([14]; Preemergence, 250 g ai/ha): 100
- Foxtail, Giant plant response rating [14, 33]: 80
- Cocklebur plant response rating [15, 31]: 0
- Cocklebur plant response rating [15, 32]: 0
- Plant response rating (0 to 100), Cocklebur ([15]; Preemergence, 250 g ai/ha): 0
- Cocklebur plant response rating [15, 33]: 0
